Assay results from patent publication US20070208062A1, “3-(4-(2-DIHYDROISOXAZOL-3-YLPYRIDIN-5-YL)PHENYL)-5-TRIAZOL-1-YLMETHYLOXAZOLIDIN-2-ONE DERIVATIVES AS MAO INHIBITORS FOR THE TREATMENT OF BACTERIAL INFECTIONS” (ASTRAZENECA AB, priority 2004, published 2007).
≈ marks a conversion by molar mass, not a printed value. Structures can show the parent of a compound that is named as a salt.

Tests used:
[1] = tested on: Staphylococci, Streptococci, enterococci, fastidious Gram negative organisms; experiment: standard in-vitro test system, antibacterial activity (MIC); format: cell-based; settings: result in words
Text: The pharmaceutically-acceptable compounds of the present invention are useful antibacterial agents having a good spectrum of activity in vitro against standard Gram-positive organisms, which are used to screen for activity against pathogenic bacteria. […] The antibacterial spectrum and potency of a particular compound may be determined in a standard test system.
(§1) The following results were obtained on a standard in-vitro test system. The activity is described in terms of the minimum inhibitory concentration (MIC) determined by the agar-dilution technique with an inoculum size of 10^4 CFU/spot. Typically, compounds are active in the range 0.01 to 256 μg/ml.
(§2) Staphylococci were tested on agar, using an inoculum of 10^4 CFU/spot and an incubation temperature of 37° C. for 24 hours—standard test conditions for the expression of methicillin resistance.
(§3) Streptococci and enterococci were tested on agar supplemented with 5% defibrinated horse blood, an inoculum of 10^4 CFU/spot and an incubation temperature of 37° C. in an atmosphere of 5% carbon dioxide for 48 hours—blood is required for the growth of some of the test organisms. Fastidious Gram negative organisms were tested in Mueller-Hinton broth, supplemented with hemin and NAD, grown aerobically for 24 hours at 37° C., and with an inoculum of 5×10^4 CFU/well.

Haemophilus influenzae = experiment: MIC, Haemophilus influenzae; format: cell-based; settings: Mueller-Hinton broth with hemin and NAD, 24 hours, 5×10^4 CFU/well
Method: as §1, §3

[2] = tested on: Staphylococcus aureus MSQS (methicillin sensitive and quinolone sensitive); experiment: MIC by agar-dilution, Staphylococcus aureus MSQS; format: cell-based; settings: inoculum 10^4 CFU/spot, 37° C., 24 hours
Method: as §1, §2

[3] = tested on: Linezolid Resistant Streptococcus pneumoniae; experiment: MIC, Linezolid Resistant Streptococcus pneumoniae; format: cell-based; settings: agar with 5% defibrinated horse blood, 5% carbon dioxide, 48 hours
Method: as §1, §3

[4] = tested on: Staphylococcus aureus MRQR (methicillin resistant and quinolone resistant); experiment: MIC by agar-dilution, Staphylococcus aureus MRQR; format: cell-based; settings: inoculum 10^4 CFU/spot, 37° C., 24 hours
Method: as §1, §2

MAO-A = target: T1, MAO-A (Homo sapiens, UniProt P21397); experiment: MAO-A standard in-vitro assay, human liver enzyme expressed in yeast; format: biochemical; settings: read-out: Ki against MAO-A
T1 construct: made in house; host or cells: yeast
T1 sequence (P21397 1-527): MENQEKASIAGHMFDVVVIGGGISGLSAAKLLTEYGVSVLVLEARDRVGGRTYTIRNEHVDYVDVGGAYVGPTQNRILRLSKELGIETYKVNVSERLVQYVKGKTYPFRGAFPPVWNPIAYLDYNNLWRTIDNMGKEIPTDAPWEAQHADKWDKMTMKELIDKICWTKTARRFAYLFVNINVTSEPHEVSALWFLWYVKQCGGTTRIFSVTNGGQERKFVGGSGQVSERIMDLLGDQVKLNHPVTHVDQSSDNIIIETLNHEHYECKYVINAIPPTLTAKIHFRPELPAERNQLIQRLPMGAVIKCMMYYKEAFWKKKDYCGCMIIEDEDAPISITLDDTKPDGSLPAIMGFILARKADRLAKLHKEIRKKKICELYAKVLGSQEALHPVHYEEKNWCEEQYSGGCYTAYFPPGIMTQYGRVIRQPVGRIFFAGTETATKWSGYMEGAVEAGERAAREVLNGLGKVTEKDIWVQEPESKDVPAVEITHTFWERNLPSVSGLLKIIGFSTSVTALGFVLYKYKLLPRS
Method: The activity of the compounds of the invention against MAO-A was tested using a standard in-vitro assay based on human liver enzyme expressed in yeast as described in Biochem. Biophys. Res. Commun. 1991, 181, 1084-1088.

Moraxella catarrhalis = experiment: MIC, Moraxella catarrhalis; format: cell-based; settings: Mueller-Hinton broth with hemin and NAD, 24 hours, 5×10^4 CFU/well
Method: as §1, §3

Streptococcus pneumoniae = experiment: MIC, Streptococcus pneumoniae; format: cell-based; settings: agar with 5% defibrinated horse blood, 5% carbon dioxide, 48 hours
Method: as §1, §3

melting point [°C]	SMILES	other results
180 to 187	CC(C)(O)COC[C@@H]1CC(c2ccc(-c3ccc(N4C[C@H](Cn5ccnn5)OC4=O)cc3F)cn2)=NO1 [Example 16]	–
176	O=C1O[C@@H](Cn2ccnn2)CN1c1ccc(-c2ccc(C3=NO[C@H](COCCCO)C3)nc2)c(F)c1 [Example 7, (5R)-3-[3-Fluoro-4-(6-{(5S)-5-[(3-hydroxypropoxy)methyl]-4,5-dihydroisoxazole-3-yl}pyridin-3-yl)phenyl]-5-(1H-1,23-triazol-1-ylmethyl)-1,3-oxazolidin-2-one]	–
134	CC(=O)NCCOC[C@@H]1CC(c2ccc(-c3ccc(N4C[C@H](Cn5ccnn5)OC4=O)cc3F)cn2)=NO1 [Example 14, N-(2-{[(5S)-3-(5-{2-Fluoro-4-[(5R)-2-oxo-5-(1H-1,2,3-triazol-1-ylmethyl)-1,3-oxazolidin-3-yl]phenyl}pyridin-2-yl)-4,5-dihydroisoxazole-5-yl]methoxy}ethyl)acetamide]	–
190	O=C(O)COC[C@@H]1CC(c2ccc(-c3ccc(N4C[C@H](Cn5ccnn5)OC4=O)cc3F)cn2)=NO1 [Example 3, {[(5S)-3-(5-{2-Fluoro-4-[(5R)-2-oxo-5-(1H-1,2,3-triazol-1-ylmethyl)-1,3-oxazolidin-3-yl]phenyl}pyridin-2-yl)-4,5-dihydroisoxazole-5-yl]methoxy}acetic acid]	–
162	O=C1O[C@@H](Cn2ccnn2)CN1c1ccc(-c2ccc(C3=NO[C@H](COCCO)C3)nc2)c(F)c1 [Example 8]	–
166 to 168	CN(C)C(=O)COC[C@@H]1CC(c2ccc(-c3ccc(N4C[C@H](Cn5ccnn5)OC4=O)cc3F)cn2)=NO1 [Example 5, 2-{[(5S)-3-(5-{2-Fluoro-4-[(5R)-2-oxo-5-(1H-1,2,3-triazol-1-ylmethyl)-1,3-oxazolidin-3-yl]phenyl}pyridin-2-yl)-4,5-dihydroisoxazole-5-yl]methoxy}-N,N-dimethylacetamide]	–
135 to 140	CN(CCOC[C@@H]1CC(c2ccc(-c3ccc(N4C[C@H](Cn5ccnn5)OC4=O)cc3F)cn2)=NO1)CC(=O)O [Example 20, N-(2-{[(5S)-3-(5-{2-Fluoro-4-[(5R)-2-oxo-5-(1H-1,2,3-triazol-1-ylmethyl)-1,3-oxazolidin-3-yl]phenyl}pyridin-2-yl)-4,5-dihydroisoxazole-5-yl]methoxy}ethyl)-N-methylglycine]	–
119	CC[C@H](C)[C@H](N)C(=O)OCCOC[C@@H]1CC(c2ccc(-c3ccc(N4C[C@H](Cn5ccnn5)OC4=O)cc3F)cn2)=NO1 (as salt: HCl) [Example 17, 2-{[(5S)-3-(5-{2-Fluoro-4-[(5R)-2-oxo-5-(1H-1,2,3-triazol-1-ylmethyl)-1,3-oxazolidin-3-yl]phenyl}pyridin-2-yl)-4,5-dihydroisoxazole-5-yl]methoxy}ethyl L-isoleucinate]	–
153 to 156	CNC(=O)COC[C@@H]1CC(c2ccc(-c3ccc(N4C[C@H](Cn5ccnn5)OC4=O)cc3F)cn2)=NO1 [Example 4, 2-{[(5S)-3-(5-{2-Fluoro-4-[(5R)-2-oxo-5-(1H-1,2,3-triazol-1-ylmethyl)-1,3-oxazolidin-3-yl]phenyl}pyridin-2-yl)-4,5-dihydroisoxazole-5-yl]methoxy}-N-methylacetamide]	MIC (Haemophilus influenzae): 8 µg/mL (≈ 15.7 µM); MIC [2]: 0.25 µg/mL (≈ 0.491 µM); MIC [3]: 1 µg/mL (≈ 1.96 µM); MIC [4]: 0.5 µg/mL (≈ 0.981 µM); Ki (MAO-A): 8 µM; MIC (Moraxella catarrhalis): 0.5 µg/mL (≈ 0.981 µM); MIC (Streptococcus pneumoniae): 0.06 µg/mL (≈ 0.118 µM)

The remaining lines, values behind:

SMILES	melting point [°C]	other results
CN(C)CC(O)COC[C@@H]1CC(c2ccc(-c3ccc(N4C[C@H](Cn5ccnn5)OC4=O)cc3F)cn2)=NO1 (some centres unmarked) (as salt: hydrochloride) [Example 19]	110 to 115	–
CS(=O)(=O)NCCOC[C@@H]1CC(c2ccc(-c3ccc(N4C[C@H](Cn5ccnn5)OC4=O)cc3F)cn2)=NO1 [Example 13, N-(2-{[(5S)-3-(5-{2-Fluoro-4-[(5R)-2-oxo-5-(1H-1,2,3-triazol-1-ylmethyl)-1,3-oxazolidin-3-yl]phenyl}pyridin-2-yl)-4,5-dihydroisoxazole-5-yl]methoxy}ethyl)methanesulfonamide]	170	–
N#CCOC[C@@H]1CC(c2ccc(-c3ccc(N4C[C@H](Cn5ccnn5)OC4=O)cc3F)cn2)=NO1 [Example 15, {[(5S)-3-(5-{2-Fluoro-4-[(5R)-2-oxo-5-(1H-1,2,3-triazol-1-ylmethyl)-1,3-oxazolidin-3-yl]phenyl}pyridin-2-yl)-4,5-dihydroisoxazole-5-yl]methoxy}acetonitrile]	90 to 115	–
CC(C)(C)OC(=O)COC[C@@H]1CC(c2ccc(-c3ccc(N4C[C@H](Cn5ccnn5)OC4=O)cc3F)cn2)=NO1 [Pro-drug Example 1, tert-Butyl {[(5S)-3-(5-{2-fluoro-4-[(5R)-2-oxo-5-(1H-1,2,3-triazol-1-ylmethyl)-1,3-oxazolidin-3-yl]phenyl}pyridin-2-yl)-4,5-dihydroisoxazole-5-yl]methoxy}acetate]	186	–
CN1CCN(C(=O)COC[C@@H]2CC(c3ccc(-c4ccc(N5C[C@H](Cn6ccnn6)OC5=O)cc4F)cn3)=NO2)CC1 [Example 6, (5R)-3-{3-Fluoro-4-[6-((5S)-5-{[2-(4-methylpiperazin-1-yl)-2-oxoethoxy]methyl}-4,5-dihydroisoxazole-3-yl)pyridin-3-yl]phenyl}-5-(1H-1,23-triazol-1-ylmethyl)-1,3-oxazolidin-2-one]	165 to 175	–
[N-]=[N+]=NCCOC[C@@H]1CC(c2ccc(-c3ccc(N4C[C@H](Cn5ccnn5)OC4=O)cc3F)cn2)=NO1 [compound 9]	148	antibacterial activity [1]: have antibacterial activity
C=CCOC[C@@H]1CC(c2ccc(-c3ccc(N4C[C@H](Cn5ccnn5)OC4=O)cc3F)cn2)=NO1 [compound 2, (5R)-3-[4-(6-{(5S)-5-[(Allyloxy)methyl]-4,5-dihydroisoxazole-3-yl}pyridin-3-yl)-3-fluorophenyl]-5-(1H-1,2,3-triazol-1-ylmethyl)-1,3-oxazolidin-2-one]	162	antibacterial activity [1]: have antibacterial activity
O=C1OC(Cn2ccnn2)CN1c1ccc(-c2ccc(C3=NO[C@H](COCCN4CCOCC4)C3)nc2)c(F)c1 (stereo in doubt) [Example 10, (5S)-3-[3-Fluoro-4-(6-{(5S)-5-[(2-morpholin-4-ylethoxy)methyl]-4,5-dihydroisoxazole-3-yl}pyridin-3-yl)phenyl]-5-(1H-1,2,3-triazol-1-ylmethyl)-1,3-oxazolidin-2-one]	171	–
